# Experimental data as given in US7772180B2, “Hepatitis C virus inhibitors” (Bristol-Myers Squibb Company, priority 2006, dated 2010).
# Experiments:
# [1] = molecular target: T1, HCV NS3/4A protease complex, H77 strain (Hepatitis C virus genotype 1a, UniProt P27958, C1454S/C1711G); test: FRET peptide assay to monitor HCV NS3/4A proteolytic activity (H77 strain); format: biochemical; conditions: read-out: IC50 against the NS3/4A H77 strain
# T1 construct: DNA encoding the recombinant HCV NS3/4A protease complex (amino acids 1027 to 1711) for these strains; made in house; host or cells: Escherichia coli BL21 (DE3), pET21b
# T1 sequence (P27958 1027-1711 C1454S/C1711G, one chain of several): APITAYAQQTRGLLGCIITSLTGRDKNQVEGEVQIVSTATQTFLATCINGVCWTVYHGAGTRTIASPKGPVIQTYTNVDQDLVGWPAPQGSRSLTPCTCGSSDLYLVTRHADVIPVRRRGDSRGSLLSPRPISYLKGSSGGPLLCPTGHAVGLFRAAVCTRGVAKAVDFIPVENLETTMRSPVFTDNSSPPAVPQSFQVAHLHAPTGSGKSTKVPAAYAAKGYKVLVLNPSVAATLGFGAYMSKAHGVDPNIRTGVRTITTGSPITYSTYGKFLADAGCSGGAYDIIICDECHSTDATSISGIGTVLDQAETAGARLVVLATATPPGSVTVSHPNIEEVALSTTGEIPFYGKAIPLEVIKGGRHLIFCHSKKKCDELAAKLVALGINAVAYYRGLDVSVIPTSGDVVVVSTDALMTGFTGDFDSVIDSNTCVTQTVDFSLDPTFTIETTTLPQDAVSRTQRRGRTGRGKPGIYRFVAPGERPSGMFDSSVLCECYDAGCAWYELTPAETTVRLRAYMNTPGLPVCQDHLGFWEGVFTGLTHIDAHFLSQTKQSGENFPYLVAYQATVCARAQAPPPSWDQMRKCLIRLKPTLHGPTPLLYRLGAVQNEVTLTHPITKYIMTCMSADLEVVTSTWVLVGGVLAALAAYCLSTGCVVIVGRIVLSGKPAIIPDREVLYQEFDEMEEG
# Excerpt: (§1) HCV NS3 protease complexes, derived from the BMS strain, H77 strain or J4L6S strain, were generated, as described below. These purified recombinant proteins were generated for use in a homogeneous assay (see below) to provide an indication of how effective compounds of the present disclosure would be in inhibiting HCV NS3 proteolytic activity.
# (§2) Serum from an HCV-infected patient was obtained from Dr. T. Wright, San Francisco Hospital. An engineered full-length cDNA (compliment deoxyribonucleic acid) template of the HCV genome (BMS strain) was constructed from DNA fragments obtained by reverse transcription-PCR (RT-PCR) of serum RNA (ribonucleic acid) and using primers selected on the basis of homology between other genotype 1a strains. From the determination of the entire genome sequence, a genotype 1a was assigned to the HCV isolate according to the classification of Simmonds et al. (See P Simmonds, K A Rose, S Graham, S W Chan, F McOmish, B C Dow, E A Follett, P L Yap and H Marsden, J. Clin. Microbiol., 31(6), 1493-1503 (1993)). […]
# [2] = molecular target: T2, HCV NS3/4A protease complex, J4L6S strain (Hepatitis C virus genotype 1b, UniProt O92972, C1454S/C1711G); test: FRET peptide assay to monitor HCV NS3/4A proteolytic activity (J4L6S strain); format: biochemical; conditions: read-out: IC50 against the NS3/4A J4L6S strain
# T2 construct: DNA encoding the recombinant HCV NS3/4A protease complex (amino acids 1027 to 1711) for these strains; made in house; host or cells: Escherichia coli BL21 (DE3), pET21b
# T2 sequence (O92972 1027-1711 C1454S/C1711G, one chain of several): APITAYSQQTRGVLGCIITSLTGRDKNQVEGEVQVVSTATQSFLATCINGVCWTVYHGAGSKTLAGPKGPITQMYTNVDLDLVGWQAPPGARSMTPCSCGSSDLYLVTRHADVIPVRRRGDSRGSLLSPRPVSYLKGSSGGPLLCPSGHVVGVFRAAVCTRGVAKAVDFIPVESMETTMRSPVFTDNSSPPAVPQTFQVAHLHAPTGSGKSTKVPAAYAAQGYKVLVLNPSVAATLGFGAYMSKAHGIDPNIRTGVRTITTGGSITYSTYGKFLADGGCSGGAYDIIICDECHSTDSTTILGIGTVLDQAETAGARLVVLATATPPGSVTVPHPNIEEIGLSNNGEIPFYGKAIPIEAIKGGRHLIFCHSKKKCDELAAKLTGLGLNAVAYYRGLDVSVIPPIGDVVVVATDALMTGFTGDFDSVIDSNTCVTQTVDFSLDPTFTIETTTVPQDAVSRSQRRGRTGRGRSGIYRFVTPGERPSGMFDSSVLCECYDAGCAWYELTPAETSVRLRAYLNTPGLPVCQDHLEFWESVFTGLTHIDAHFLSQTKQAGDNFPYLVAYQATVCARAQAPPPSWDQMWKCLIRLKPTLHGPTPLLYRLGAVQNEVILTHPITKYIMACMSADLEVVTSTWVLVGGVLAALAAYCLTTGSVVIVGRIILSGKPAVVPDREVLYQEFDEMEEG
# Excerpt: as §1, §2
smiles,measurement,setting,value
"C=C[C@@H]1C[C@]1(NC(=O)[C@@H]1C[C@@H](Oc2nc(N(C)C)cc3cc(OC)ccc23)CN1C(=O)C(Nc1cc(C)cc(C)n1)C(C)(C)C)C(=O)NS(=O)(=O)C1CC1 (single isomer, unassigned) [Compound 18]",IC50,[1],1.2 nM
same,IC50,[2],0.9 nM
